Experimental data reported in patent US20240423981A1, “TREATMENT OF HCM WITH PYRIMIDINEDIONE COMPOUNDS” (MyoKardia, Inc., priority 2017, published 2024).
“Also recorded” adds a separate entry of the source.

Key:
[1] = system: subjects with symptomatic HCM and LVOT obstruction; assay: Phase 2 open-label pilot study Pioneer-HCM-A (Cohort A); assay type: in vivo, human; conditions: for Lateral e′ Week 12: baseline 6.9 ± 1.9; for E/e′ Week 12: baseline 12.9 ± 3.3
Source text: This is a phase 2 open-label pilot study to evaluate the efficacy, PK, PD, safety, and tolerability of Compound 1 in subjects with symptomatic HCM and LVOT obstruction. Approximately 10 adult subjects with symptomatic HCM, a resting LVOT gradient ≥30 mm Hg, and post-exercise peak LVOT gradient ≥50 mm Hg will be enrolled. The study will have a 12-week treatment phase and a 4-week washout phase (FIG. 3).
At Screening, subjects will undergo transthoracic echocardiography (TTE) in the supine or left lateral decubitus position. In addition to a standardized complete TTE, both resting instantaneous peak LVOT gradient (baseline) and provoked peak LVOT gradient will be collected. Subjects will then undergo a standard symptom-limited exercise test (hemodynamic stress echocardiography). Subjects will be assessed systematically for symptoms of dyspnea and/or angina. Instantaneous peak LVOT gradient will be assessed immediately post-exercise by TTE.
On Day 1, resting TTE will be performed, blood samples will be drawn for PK, and subjects will have an assessment of pVO2, VE/VCO2, and other variables via cardiopulmonary exercise testing (CPET). After CPET, subjects will be dosed with open-label oral Compound 1 at the investigational site and will be observed for at least 1 hour after dosing, with assessment of vital signs and ECGs at 1 hour postdose. Subjects will then be supplied with Compound 1 sufficient for QD dosing at home.
Subjects will be evaluated at the investigational site at Weeks 1, 2, 3, 4, 5, 6, 7, 8, 12, and 16. At each of these visits, resting TTE will be performed and blood samples will be drawn for PK. On study visit days, study medication will be administered at the investigational site in order to collect blood samples for PK about 2 hours prior to dosing. At Weeks 4, 12, and 16, hemodynamic stress echocardiography will be performed and peak LVOT gradient will be assessed. CPET will be conducted between Weeks 10 and 12 (inclusive).
The Compound 1 starting dose will be 10 mg for subjects who weigh […] 60 kg and 15 mg for subjects who weigh >60 kg. At the end of Week 4 (Day 28), each subject's LVEF will be evaluated, and the subject's dose may be increased, decreased, or remain unchanged based on the predetermined criteria in Table 6, in consultation between the investigator and the medical monitor. If Compound 1 plasma concentration exceeds 750 ng/mL at Week 2, no dose increase is allowed, regardless of LVEF data at Week 4; however, dose decrease per LVEF data is allowed in this circumstance. The subject will subsequently receive that dose from Week 5 through Week 12.
The following results were obtained generally following the procedures described in Example 3. Each subject in the following trials discontinued β-blocker, calcium-channel blocker, and/or disopyramide therapy at least 14 days prior to the screening visit.

healthy men = assay: Study Compound 1-002: single ascending-dose (SAD) trial in healthy volunteers; assay type: in vivo, human
Method: Three clinical studies have investigated the safety and tolerability of Compound 1 to date; conduct of 2 studies has completed and 1 study is ongoing. A double-blind, placebo-controlled, single ascending-dose study (SAD) (Compound 1-002) was conducted in healthy men. Subjects received single doses ranging from 1 mg to 48 mg. Conduct of an open-label sequential-group SAD study in subjects with clinically stable HCM (Compound 1-001) is also complete; single doses of up to 144 mg were administered. In addition, a double-blind, placebo-controlled, multiple ascending-dose (MAD) study (Compound 1-003) is being conducted in which healthy adult subjects have received multiple doses of Compound 1 up to 25 mg once daily (QD) for up to 28 days.
In Study Compound 1-002, single doses from 1 mg to 48 mg were administered as an oral suspension to healthy men. […] Single doses of ≥12 mg of Compound 1 were associated with detectable reductions in LV contractility from baseline as assessed by 3 independent echocardiographic measures (left ventricular ejection fraction [LVEF], LV fractional shortening (LVFS), and LVOT velocity time integral [VTI]). At the highest dose studied in healthy subjects (48 mg), mean reduction in LVEF at any time point was −6% relative to baseline.

[2] = Cohort A (10-15 mg/day), N = 10, mean ± SD
[3] = Cohort A, baseline to Week 12, n 10

`CC(C)n1c(=O)cc(N[C@@H](C)c2ccccc2)[nH]c1=O` [Compound 1, (S)-3-Isopropyl-6-((1-phenylethyl)amino) pyrimidine-2, 4(1H,3H)-dione] was tested, and the “LV filling pressure and diastolic wall stress” value ([1]; 15 mg/day, oHCM patients) was “improvement in LV filling pressure (reduced E/e′) and diastolic wall stress (reduced NTpro-BNP)”, the LVOT gradient ([1]; 15 mg/day, oHCM patients) was “eliminates LVOT gradient” and the “resting LV systolic function” value ([1]; 15 mg/day, oHCM patients) was “decreases resting LV systolic function”. The “resting LVOT gradient” value ([1]; 10, 15 or 20 mg, weeks 0 to 12) was “abolished as early as week 1 in most subjects and by week 2 in all subjects”, the “change in LVEF (stress ejection fraction)” value ([1]; 10 or 15 mg, weeks 0, 4 and 12) was “minimal change” and the “stress LVOT gradient” value ([1]; 10 or 15 mg, weeks 0, 4 and 12) was “abolished”. The “Resting LVEF Week 12” value ([1]; Cohort A (10-15 mg/day), LVEF N = 4, mean ± SD, baseline 70 ± 6) was 54 ± 12%, the “Post-exercise LVEF Week 12” value ([1]; Cohort A (10-15 mg/day), LVEF N = 4, mean ± SD, baseline 76 ± 5) was 60 ± 22% and the “Septal e′ Week 12” value ([1]; Cohort A (10-15 mg/day), N = 10, mean ± SD, baseline 5 4 ± 1 6) was 6.4 ± 1.5 cm/s. For the same compound, the “Mean e′ Week 12” value ([1]; Cohort A (10-15 mg/day), N = 10, mean ± SD, baseline 5.7 ± 1.2) was 7.4 ± 1.6 cm/s, the “Lateral e′ Week 12” value [1, 2] was 8.8 ± 1.6 cm/s and the “E/e′ Week 12” value [1, 2] was 9.1 ± 2.1. The “Resting Gradient Week 12” value ([1]; Cohort A (10-15 mg/day), N = 10, mean ± SD, baseline 68 ± 34) was 14 ± 25 mm Hg, the “Post-exercise Gradient Week 12” value ([1]; Cohort A (10-15 mg/day), N = 10, mean ± SD, baseline 125 ± 60) was 19 ± 13 mm Hg and the “NT-pro BNP Week 12” value ([1]; Cohort A (10-15 mg/day), N = 10, mean ± SD, baseline 939 ± 647) was 235 ± 417 pg/mL. The “E/e′ Delta” value ([1]; Cohort A, baseline to Week 12, n 8) was −3.6 ± 3.7, the “Lateral e′ Delta” value ([1]; Cohort A, baseline to Week 12, n 9) was 1.6 ± 1.9 cm/s and the “Dyspnea score Delta” value [1, 3] was −3.1 ± 1.4. For the same compound, the “LA Vol (index) Delta” value [1, 3] was 1 ± 7 mL/m^2, the “NT-proBNP Delta” value [1, 3] was −459 ± 722 and the “LVEDV Delta” value ([1]; Cohort A, baseline to Week 12, n 11) was 16 ± 21. The “Dyspnea score Week 12” value ([1]; Cohort A, baseline 4.9 ± 1.6, n 10) was 1.7 ± 1.8, the “Lateral e′ Week 12” value ([1]; Cohort A, n 9) was 8.7 ± 1.6 cm/s and the “E/e′ Week 12” value ([1]; Cohort A, n 8) was 9.1 ± 2.2. For the same compound, the “LA Vol (index) Week 12” value ([1]; Cohort A, baseline 30 ± 10, n 10) was 31 ± 8 mL/m^2, the “LVEDV Week 12” value ([1]; Cohort A, baseline 82 ± 24, n 11) was 97 ± 24 and the “NT-proBNP Week 12” value ([1]; Cohort A, baseline 930 ± 647, n 10) was 454 ± 551. The dyspnea symptom score ([1]; Day 1 to Week 16, dosing through week 12) was “improves with Compound 1 administration, returning after cessation of therapy; also recorded: improve”, the “resting LVEF versus Compound 1 concentration” value ([1]; FIG. 8) was “exposure-dependent decrease” and the “increase in exercise capacity (pVO2) versus change in LVEF” value ([1]; FIG. 14) was “greatest in patients with the least decrease in LVEF”. For the same compound, the “oHCM phenotype after cessation (resting LVOT gradient, resting LVEF)” value ([1]; administration stopped after week 12) was “returns after cessation of Compound 1”, the “most robust improvements in pVO2” value ([1]; associated with minimal change in resting LVEF) was > 3 mL/min/kg and the “peak VO2 during CPET” value ([1]; baseline versus week 12) was “improves CPET metric; also recorded: improve”. The “peak circulatory power during CPET” value ([1]; baseline versus week 12) was “improves CPET metric; also recorded: improve”, the tolerability ([1]; doses up to 20 mg QD) was “well tolerated” and the “Compound 1 concentration associated with reduction of resting gradient below hemodynamic significance” value ([1]; plasma) was > 225 ng/mL. For the same compound, the NT-proBNP levels ([1]; weeks 0, 4, 8 and 12) was “reduced after 4 weeks of Compound 1 but can rebound with higher exposures”, the “NYHA Class” value ([1]; with Compound 1 therapy) was “improve” and the Responders % (healthy men; 12 mg single dose cohort) was 50%. The Responders n (healthy men; 12 mg single dose cohort) was 3/6, the Responders % (healthy men; 24 mg single dose cohort) was 83% and the Responders n (healthy men; 24 mg single dose cohort) was 5/6. For the same compound, the Responders % (healthy men; 48 mg single dose cohort) was 100%, the Responders n (healthy men; 48 mg single dose cohort) was 6/6 and the “mean reduction in LVEF at any time point relative to baseline” value (healthy men; 48 mg single dose, healthy subjects) was −6%. The “single dose associated with detectable reductions in LV contractility from baseline” value (healthy men; 3 echocardiographic measures (LVEF, LVFS, LVOT VTI), healthy men) was ≥ 12 mg, the “changes in systolic blood pressure or heart rate” value (healthy men; any dose level 1 mg to 48 mg) was “No changes in systolic blood pressure (BP) or heart rate (HR) were detected” and the “incidence of treatment-emergent AEs versus dose” value (healthy men; single doses 1 mg to 48 mg) was “did not appear to increase with dose”. For the same compound, the tolerability (healthy men; single doses 1 mg to 48 mg, oral suspension, healthy men) was “well tolerated, with no serious adverse events (SAEs), deaths, or withdrawals from study due to adverse events (AEs) reported”.
